Data from patent publication US20180244653A1, “SELECTIVE ALPHA-7 NICOTINIC RECEPTOR AGONISTS AND METHODS FOR MAKING AND USING THEM” (THE REGENTS OF THE UNIVERSITY OF CALIFORNIA, priority 2015, published 2018).
“Also recorded” adds a separate entry of the source.

How the values were obtained:
[1] = tested on: mice; test: Locomotor activity test (Y-maze); type: in vivo; details: all tested doses, i.p., 1 h before
Method: A black polyvinyl chloride Y-maze, which was 40 cm long, 3 cm wide at the bottom and 10 cm wide at the top, and 12 cm high in each arm, was used to study the effect of synthesized compounds on locomotor activity. Each mouse was placed at the end of one arm and was allowed to move freely in Y-maze for 8 min after 1 h injection of vehicle or test compounds. The number of entries to all arms was recorded visually if mice accessed into each arm at least 10 cm from the middle of the maze.
Figure S1. Locomotor activity testing of IND8 (A) and QND8 (B). Mice were injected vehicle or test compounds 1 h before moving freely in Y-maze for 8 min. The number of entries into 3 arms was recorded. The one-way ANOVA was used to evaluate the different result between test and vehicle groups.

[2] = tested on: scopolamine-induced amnesic mice; test: Object recognition test (ORT); type: in vivo; details: i.p.; for Discrimination index / episodic short-term memory, ORT vs scopolamine-treated group: tacrine 1 mg/kg, IND8, QND8 10 and 50 μmol/kg; for Minimum effective dose, ORT: scopolamine induced amnesia model, ICR mice
Method: FIG. 22 illustrates exploration time to familiar (F) and novel (N) objects of IND8 (A) and QND8 (B) in test phase of ORT. Each mouse was allowed to explore an open field apparatus for 5 min in a habituation phase. After a 24 h period, IND8, QND8, PNU-282987, vehicle (15% Tween80, SH) and tacrine (TC) were injected 1 h and scopolamine (SC) 30 min before sample phase, respectively. Each mouse explored 2 identical objects in the sample phase for 5 min and then placed in its cage for 10 min before the test phase began. In the 5 min of test phase, one of the objects was changed to a new one. The exploration time of these objects was recorded.
In both data sets, a discrimination index (DI) was calculated and used to evaluate the ability of mice to discriminate between familiar and novel objects. Data are represented in FIG. 23.
Amnesia was induced pharmacologically in mice via scopolamine injection (single dose) for 30 min prior to start the experiments. They were divided into vehicle group: receiving 15% tween 80 and 0.9% NSS, amnesia group: receiving scopolamine 1 mg/kg, standard positive control group receiving tacrine 1 mg/kg, and test group: receiving IND8, QND8 at dose 5, 10, 25, 50 μmol/kg, or PNU-282987 3, 10 mg/kg, single dose. All mice were acclimated in an experimental room at least 30 min before the experiments.
The apparatus was made of black polyvinyl chloride (52×52×40 cm). The objects used in this experiment had different visual shapes and colors to be discriminated. They were placed 10 cm from the side wall in the balanced manner. The box area and objects were cleaned with 70% ethanol between each experiment to remove odor cues.
The mice were randomly divided into different treatment groups. They were allowed to freely explore the open field apparatus for 5 min for habituation in the day prior to the experiments to get familiar with the apparatus. On the experimental day, test compounds injected 1 h, whereas scopolamine administered 30 min before the sample phase (acquisition trial). The mice were placed in the apparatus to explore 2 identical objects. After 10 min of acclimation in their cages, one object was changed to a new one, and mice were allowed to explore these objects for 5 min in the test phase (retention trial). The exploration time of each object was recorded if the nose of mice approached the objects within 3 cm or touched the objects. The discrimination index (DI) was calculated by using (TN−TF)/(TN+TF); TN and TF represented exploration time of new and familiar objects, respectively.

[3] = target: hERG K^+ channel (Homo sapiens, UniProt Q12809); details: at 20 μM; cited from earlier work
Sequence of hERG K^+ channel (Q12809 whole entry): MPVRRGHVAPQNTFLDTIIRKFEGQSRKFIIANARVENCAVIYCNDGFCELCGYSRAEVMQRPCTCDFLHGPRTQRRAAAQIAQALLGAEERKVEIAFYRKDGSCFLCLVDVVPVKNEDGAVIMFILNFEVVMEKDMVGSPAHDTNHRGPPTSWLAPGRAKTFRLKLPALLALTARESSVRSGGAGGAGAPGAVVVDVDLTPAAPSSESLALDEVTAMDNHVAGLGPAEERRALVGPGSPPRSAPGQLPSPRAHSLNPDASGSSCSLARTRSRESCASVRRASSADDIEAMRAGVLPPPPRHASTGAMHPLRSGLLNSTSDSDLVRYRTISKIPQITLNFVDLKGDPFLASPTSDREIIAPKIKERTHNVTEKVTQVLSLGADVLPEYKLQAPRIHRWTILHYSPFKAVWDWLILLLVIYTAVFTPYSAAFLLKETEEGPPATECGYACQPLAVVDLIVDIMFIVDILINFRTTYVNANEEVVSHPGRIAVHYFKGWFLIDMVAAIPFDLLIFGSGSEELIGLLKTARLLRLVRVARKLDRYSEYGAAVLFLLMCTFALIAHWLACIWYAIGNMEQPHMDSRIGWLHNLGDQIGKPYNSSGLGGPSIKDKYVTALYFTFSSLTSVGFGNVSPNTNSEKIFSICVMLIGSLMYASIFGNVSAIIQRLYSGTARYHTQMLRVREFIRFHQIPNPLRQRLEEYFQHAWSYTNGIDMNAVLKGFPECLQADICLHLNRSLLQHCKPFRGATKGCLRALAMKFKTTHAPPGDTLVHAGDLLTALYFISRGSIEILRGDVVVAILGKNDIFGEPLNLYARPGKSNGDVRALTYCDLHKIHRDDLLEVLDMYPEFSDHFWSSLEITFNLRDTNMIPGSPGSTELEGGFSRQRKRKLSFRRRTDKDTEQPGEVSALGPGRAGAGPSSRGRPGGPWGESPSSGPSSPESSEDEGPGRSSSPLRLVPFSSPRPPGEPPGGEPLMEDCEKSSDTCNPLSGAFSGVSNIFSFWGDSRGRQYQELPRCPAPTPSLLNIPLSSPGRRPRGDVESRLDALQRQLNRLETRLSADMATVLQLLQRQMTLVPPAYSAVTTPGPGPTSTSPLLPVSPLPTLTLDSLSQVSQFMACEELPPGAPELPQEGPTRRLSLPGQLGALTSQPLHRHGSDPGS

## c1cc2cc(-c3cn(C4CN5CCC4CC5)nn3)ccc2[nH]1 (stereo not shown) [IND8, 5-((Quinuclid-3-yl)-1H-1,2,3-triazol-4-yl)-1H-indole]
[1]
  Locomotor activity (number of arm entries) vs vehicle: neither a reduction nor an increase in locomotor activity was observed; also recorded: no significant difference
[2]
  Discrimination index / episodic short-term memory, ORT vs scopolamine-treated group: significantly improved episodic short-term memory
  Minimum effective dose, ORT: 10 µmol/kg

## O=C(N[C@H]1CN2CCC1CC2)c1ccc(Cl)cc1 [PNU-282987, reference compound]
[3]
  inhibition of hERG: 57%

## Oc1ccc(-c2cn(C3CN4CCC3CC4)nn2)cc1 (stereo not shown) [QND8, 3-(4-hydroxyphenyl-1,2,3-triazol-1-yl) quinuclidine]
[1]
  Locomotor activity (number of arm entries) vs vehicle: neither a reduction nor an increase in locomotor activity was observed; also recorded: no significant difference
[2]
  Discrimination index / episodic short-term memory, ORT vs scopolamine-treated group: significantly improved episodic short-term memory
  Minimum effective dose, ORT: 10 µmol/kg
